Assay results reported in the supplement of paper PMC10307832.

Legend:
Assay in all cases: relative viability (nuclei count vs DMSO), 5 days (fraction); higher = more cells survive
[1] = compound: CCn1c(-c2nonc2N)nc2cnc(Oc3cccc(NC(=O)c4ccc(OCCN5CCOCC5)cc4)c3)cc21 + CCNC(=O)c1noc(-c2cc(C(C)C)c(O)cc2O)c1-c1ccc(CN2CCOCC2)cc1 [Luminespib] (partner 0.01 µM)
How it was run: (§1)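 Five library-drug doses in √10 steps were combined with a fixed anchor-drug dose, or a single drug was given alone, by pin tool to lung cancer cell lines in 1536-well plates the day after seeding. Nuclei were stained and counted after 5 days. Relative viability is the nuclei count in treated wells over that in vehicle wells, taken as the median of duplicate plates.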

[2] = compound: N=C1NC(=O)/C(=C/c2ccc(O)cc2)S1 [Mirin] + CCNC(=O)c1noc(-c2cc(C(C)C)c(O)cc2O)c1-c1ccc(CN2CCOCC2)cc1 [Luminespib] (partner 0.01 µM)
How it was run: as §1

[3] = compound: N=C1NC(=O)/C(=C/c2ccc(O)cc2)S1 [Mirin] + N=C(N)NC(=N)NCCc1ccccc1 [Phenformin] (partner 250 µM)
How it was run: as §1

[4] = compound: N=C1NC(=O)/C(=C/c2ccc(O)cc2)S1 [Mirin] + C[C@@H](Oc1cc(-c2cnn(C3CCNCC3)c2)cnc1N)c1c(Cl)ccc(F)c1Cl [Crizotinib] (partner 1 µM)
How it was run: as §1

Row | Cell Line | relative viability ([1]; first compound 0.04 µM) | relative viability ([1]; first compound 0.1265 µM) | relative viability ([1]; first compound 0.4 µM) | relative viability ([1]; first compound 1.265 µM) | relative viability ([1]; first compound 4 µM) | relative viability ([2]; first compound 0.25 µM) | relative viability ([2]; first compound 0.7906 µM) | relative viability ([2]; first compound 2.5 µM) | relative viability ([2]; first compound 7.906 µM) | relative viability ([2]; first compound 25 µM) | relative viability ([3]; first compound 0.25 µM) | relative viability ([3]; first compound 0.7906 µM) | relative viability ([3]; first compound 2.5 µM) | relative viability ([3]; first compound 7.906 µM) | relative viability ([3]; first compound 25 µM) | relative viability ([4]; first compound 0.25 µM) | relative viability ([4]; first compound 0.7906 µM) | relative viability ([4]; first compound 2.5 µM) | relative viability ([4]; first compound 7.906 µM) | relative viability ([4]; first compound 25 µM)
1 | LXF-289 | 0.791 | 0.638 | 0.798 | 0.701 | 0.654 | 0.662 | 0.689 | 0.651 | 0.666 | 0.634 | 0.543 | 0.589 | 0.546 | 0.511 | 0.548 | 0.808 | 0.87 | 0.787 | 0.899 | 0.945
2 | LU99A | 0.264 | 0.221 | 0.286 | 0.26 | 0.249 | 0.199 | 0.207 | 0.225 | 0.209 | 0.211 | 0.839 | 0.687 | 0.882 | 0.762 | 0.766 | 0.526 | 0.463 | 0.499 | 0.499 | 0.37
3 | PC-3 [JPC-3] | 0.849 | 0.73 | 0.718 | 0.726 | 0.626 | 0.664 | 0.732 | 0.758 | 0.651 | 0.787 | 0.462 | 0.48 | 0.513 | 0.513 | 0.522 | 1 | 1.1 | 1.02 | 1.03 | 1.11
4 | NCI-H2085 | 0.535 | 0.395 | 0.373 | 0.365 | 0.377 | 0.422 | 0.343 | 0.46 | 0.473 | 0.453 | 0.804 | 0.756 | 0.749 | 0.655 | 0.654 | 0.798 | 0.853 | 0.878 | 0.704 | 0.923
5 | NCI-H2170 | 0.344 | 0.453 | 0.926 | 0.478 | 0.474 | 0.828 | 0.656 | 0.934 | 0.693 | 0.663 | 0.449 | 0.439 | 0.426 | 0.377 | 0.413 | 1.19 | 1.22 | 1.37 | 1.15 | 0.959
6 | NCI-H2228 | 0.118 | 0.109 | 0.133 | 0.162 | 0.124 | 0.144 | 0.166 | 0.159 | 0.129 | 0.114 | 0.377 | 0.299 | 0.303 | 0.295 | 0.309 | 0.481 | 0.474 | 0.462 | 0.469 | 0.488
7 | H3255 | 1.02 | 0.819 | 0.735 | 0.571 | 0.599 | 0.825 | 0.79 | 0.943 | 0.712 | 0.821 | 0.33 | 0.379 | 0.408 | 0.271 | 0.361 | 0.882 | 0.939 | 0.838 | 0.735 | 0.836
8 | HCC-15 | 0.301 | 0.227 | 0.376 | 0.207 | 0.249 | 0.353 | 0.391 | 0.289 | 0.452 | 0.274 | 0.495 | 0.478 | 0.446 | 0.431 | 0.426 | 0.841 | 0.866 | 0.888 | 0.803 | 0.802
